Key:
Format in all cases: in vivo
[1] = test system: common ragweed (Ambrosia artemisiifolia L., AML); assay: Post-emerge test, common ragweed; conditions: 250 g ai/ha, 14 days after application, rating scale 0-100 (0 no damage, 100 complete death)
In short: (§1)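 Emerged seedlings, usually at 2-3 leaves after 8-21 days' growth in sandy loam, were treated with 8-1000 g ai/ha. Treatment was an acetone spray at 187 l/ha containing 0.25% v/v non-ionic surfactant. Assessment at 14 days used a 0 (no damage) to 100 (total death) scale.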

[2] = test system: barnyardgrass (Echinachloa crus-galli, ECC); assay: Pre-emerge test, barnyardgrass; conditions: 250 g ai/ha, 14 days after application, rating scale 0-100 (0 no damage, 100 complete death)
In short: (§2)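 Pots (10 cm, sandy loam mix) were seeded one day ahead of spraying. Test materials, dissolved in acetone, went on at 8–1000 g ai/ha in a 187 l/ha spray volume. Damage was scored 14 days later from 0 (none) to 100 (total kill).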

[3] = test system: field corn (Zea mays L., var. Dekalb 535, CORN); assay: Post-emerge test, crop damage field corn; conditions: post-emerge, 250 g ai/ha, 14 days after application, rating scale 0-100 (0 no damage, 100 complete death)
In short: as §1

[4] = test system: wheat (Triticum aestivum); assay: Pre-emerge test, crop damage wheat; conditions: pre-emerge, 250 g ai/ha, 14 days after application, rating scale 0-100 (0 no damage, 100 complete death)
In short: (§3)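 Greenhouse pre-emergence screen: track-sprayer application of compounds in acetone at 187 l/ha, rates 8 g ai/ha to 1000 g ai/ha, one day after planting in sandy loam pots. Damage scored at 14 days, 0 (none) to 100 (all plants dead).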

[5] = test system: redroot pigweed (Amaranthus retroflexus, AMR); assay: Pre-emerge test, redroot pigweed; conditions: 250 g ai/ha, 14 days after application, rating scale 0-100 (0 no damage, 100 complete death)
In short: as §2

[6] = test system: cocklebur (Xanthium strumariunt, XAS); assay: Post-emerge test, cocklebur; conditions: 250 g ai/ha, 14 days after application, rating scale 0-100 (0 no damage, 100 complete death)
In short: as §1

[7] = test system: large crabgrass (Digitaria sanguinalis, DIS); assay: Post-emerge test, large crabgrass; conditions: 250 g ai/ha, 14 days after application, rating scale 0-100 (0 no damage, 100 complete death)
In short: as §1

[8] = test system: soybean (Glycine max L., var. Pella 86, SOY); assay: Pre-emerge test, crop damage soybean; conditions: pre-emerge, 250 g ai/ha, 14 days after application, rating scale 0-100 (0 no damage, 100 complete death)
In short: as §3

[9] = test system: wheat (Triticum aestivum); assay: Post-emerge test, crop damage wheat; conditions: post-emerge, 250 g ai/ha, 14 days after application, rating scale 0-100 (0 no damage, 100 complete death)
In short: as §1

[10] = test system: barnyardgrass (Echinachloa crus-galli, ECC); assay: Post-emerge test, barnyardgrass; conditions: 250 g ai/ha, 14 days after application, rating scale 0-100 (0 no damage, 100 complete death)
In short: as §1

[11] = test system: ivyleaf morningglory (Ipomoea hederacea, IPH); assay: Pre-emerge test, ivyleaf morningglory; conditions: 250 g ai/ha, 14 days after application, rating scale 0-100 (0 no damage, 100 complete death)
In short: as §2

[12] = test system: soybean (Glycine max L., var. Pella 86, SOY); assay: Post-emerge test, crop damage soybean; conditions: post-emerge, 250 g ai/ha, 14 days after application, rating scale 0-100 (0 no damage, 100 complete death)
In short: as §1

[13] = test system: lambsquarters (Chenopodium album, CHA); assay: Pre-emerge test, lambsquarters; conditions: 250 g ai/ha, 14 days after application, rating scale 0-100 (0 no damage, 100 complete death)
In short: as §2

[14] = test system: upland rice (Oryza sp., var.Tebonnet, RICE); assay: Post-emerge test, crop damage upland rice; conditions: post-emerge, 250 g ai/ha, 14 days after application, rating scale 0-100 (0 no damage, 100 complete death)
In short: as §1

[15] = test system: upland rice (Oryza sp., var.Tebonnet, RICE); assay: Pre-emerge test, crop damage upland rice; conditions: pre-emerge, 250 g ai/ha, 14 days after application, rating scale 0-100 (0 no damage, 100 complete death)
In short: as §3

[16] = test system: johnsongrass (Sorghum halepense, SOH); assay: Pre-emerge test, johnsongrass; conditions: 250 g ai/ha, 14 days after application, rating scale 0-100 (0 no damage, 100 complete death)
In short: as §2

[17] = test system: cocklebur (Xanthium strumariunt, XAS); assay: Pre-emerge test, cocklebur; conditions: 250 g ai/ha, 14 days after application, rating scale 0-100 (0 no damage, 100 complete death)
In short: as §2

[18] = test system: field corn (Zea mays L., var. Dekalb 535, CORN); assay: Pre-emerge test, crop damage field corn; conditions: pre-emerge, 250 g ai/ha, 14 days after application, rating scale 0-100 (0 no damage, 100 complete death)
In short: as §3

[19] = test system: large crabgrass (Digitaria sanguinalis, DIS); assay: Pre-emerge test, large crabgrass; conditions: 250 g ai/ha, 14 days after application, rating scale 0-100 (0 no damage, 100 complete death)
In short: as §2

[20] = test system: johnsongrass (Sorghum halepense, SOH); assay: Post-emerge test, johnsongrass; conditions: 250 g ai/ha, 14 days after application, rating scale 0-100 (0 no damage, 100 complete death)
In short: as §1

[21] = test system: green foxtail (Setaria viridis, SEV); assay: Pre-emerge test, green foxtail; conditions: 250 g ai/ha, 14 days after application, rating scale 0-100 (0 no damage, 100 complete death)
In short: as §2

[22] = test system: velvetleaf (Abutilon theophrasti, ABT); assay: Post-emerge test, velvetleaf; conditions: 250 g ai/ha, 14 days after application, rating scale 0-100 (0 no damage, 100 complete death)
In short: as §1

[23] = test system: velvetleaf (Abutilon theophrasti, ABT); assay: Pre-emerge test, velvetleaf; conditions: 250 g ai/ha, 14 days after application, rating scale 0-100 (0 no damage, 100 complete death)
In short: as §2

[24] = test system: sicklepod (Cassia obtusifolia, CAO); assay: Post-emerge test, sicklepod; conditions: 250 g ai/ha, 14 days after application, rating scale 0-100 (0 no damage, 100 complete death)
In short: as §1

[25] = test system: ivyleaf morningglory (Ipomoea hederacea, IPH); assay: Post-emerge test, ivyleaf morningglory; conditions: 250 g ai/ha, 14 days after application, rating scale 0-100 (0 no damage, 100 complete death)
In short: as §1

[26] = test system: green foxtail (Setaria viridis, SEV); assay: Post-emerge test, green foxtail; conditions: 250 g ai/ha, 14 days after application, rating scale 0-100 (0 no damage, 100 complete death)
In short: as §1

[27] = test system: sicklepod (Cassia obtusifolia, CAO); assay: Pre-emerge test, sicklepod; conditions: 250 g ai/ha, 14 days after application, rating scale 0-100 (0 no damage, 100 complete death)
In short: as §2

[28] = test system: common ragweed (Ambrosia artemisiifolia L., AML); assay: Pre-emerge test, common ragweed; conditions: 250 g ai/ha, 14 days after application, rating scale 0-100 (0 no damage, 100 complete death)
In short: as §2

[29] = test system: redroot pigweed (Amaranthus retroflexus, AMR); assay: Post-emerge test, redroot pigweed; conditions: 250 g ai/ha, 14 days after application, rating scale 0-100 (0 no damage, 100 complete death)
In short: as §1

[30] = test system: lambsquarters (Chenopodium album, CHA); assay: Post-emerge test, lambsquarters; conditions: 250 g ai/ha, 14 days after application, rating scale 0-100 (0 no damage, 100 complete death)
In short: as §1

## O=C1CN2C(=O)COc3cc(F)c(N4C(=O)C5=C(CCCC5)C4=O)c(c32)N1 [1-37, 9-Flouro-8-(4,5,6,7-tetrahydro-2H-isoindole-1,3-dione-2-yl)-5H-pyrazino[1,2,3de]-1,4-benzoxazine-3,6(2H, 7H)-dione]
[1]
  Post-emerge Herbicidal Activity AML (phytotoxicity rating): 70
[2]
  Pre-emerge Herbicidal Activity ECC (phytotoxicity rating): 15
[3]
  Post-emerge crop damage CORN (phytotoxicity rating): 35
[4]
  Pre-emerge crop damage WHEAT (phytotoxicity rating): 20
[5]
  Pre-emerge Herbicidal Activity AMR (phytotoxicity rating): 100
[6]
  Post-emerge Herbicidal Activity XAS (phytotoxicity rating): 95
[7]
  Post-emerge Herbicidal Activity DIS (phytotoxicity rating): 0
[8]
  Pre-emerge crop damage SOY (phytotoxicity rating): 10
[9]
  Post-emerge crop damage WHEAT (phytotoxicity rating): 10
[10]
  Post-emerge Herbicidal Activity ECC (phytotoxicity rating): 60
[11]
  Pre-emerge Herbicidal Activity IPH (phytotoxicity rating): 85
[12]
  Post-emerge crop damage SOY (phytotoxicity rating): 55
[13]
  Pre-emerge Herbicidal Activity CHA (phytotoxicity rating): 100
[14]
  Post-emerge crop damage RICE (phytotoxicity rating): 80
[15]
  Pre-emerge crop damage RICE (phytotoxicity rating): 20
[16]
  Pre-emerge Herbicidal Activity SOH (phytotoxicity rating): 25
[17]
  Pre-emerge Herbicidal Activity XAS (phytotoxicity rating): 35
[18]
  Pre-emerge crop damage CORN (phytotoxicity rating): 15
[19]
  Pre-emerge Herbicidal Activity DIS (phytotoxicity rating): 40
[20]
  Post-emerge Herbicidal Activity SOH (phytotoxicity rating): 50
[21]
  Pre-emerge Herbicidal Activity SEV (phytotoxicity rating): 0
[22]
  Post-emerge Herbicidal Activity ABT (phytotoxicity rating): 100
[23]
  Pre-emerge Herbicidal Activity ABT (phytotoxicity rating): 60
[24]
  Post-emerge Herbicidal Activity CAO (phytotoxicity rating): 15
[25]
  Post-emerge Herbicidal Activity IPH (phytotoxicity rating): 100
[26]
  Post-emerge Herbicidal Activity SEV (phytotoxicity rating): 75
[27]
  Pre-emerge Herbicidal Activity CAO (phytotoxicity rating): 40
[28]
  Pre-emerge Herbicidal Activity AML (phytotoxicity rating): 98
[29]
  Post-emerge Herbicidal Activity AMR (phytotoxicity rating): 100
[30]
  Post-emerge Herbicidal Activity CHA (phytotoxicity rating): 85

## CC1Oc2cc(F)c(-c3nn(C)c(C(F)(F)F)c3Cl)c3c2N(C1=O)C(C)C(=O)N3 (mixture of isomers) [1-51]
[1]
  Post-emerge Herbicidal Activity AML (phytotoxicity rating): 85
[2]
  Pre-emerge Herbicidal Activity ECC (phytotoxicity rating): 100
[3]
  Post-emerge crop damage CORN (phytotoxicity rating): 50
[4]
  Pre-emerge crop damage WHEAT (phytotoxicity rating): 60
[5]
  Pre-emerge Herbicidal Activity AMR (phytotoxicity rating): 100
[6]
  Post-emerge Herbicidal Activity XAS (phytotoxicity rating): 100
[7]
  Post-emerge Herbicidal Activity DIS (phytotoxicity rating): 90
[8]
  Pre-emerge crop damage SOY (phytotoxicity rating): 65
[9]
  Post-emerge crop damage WHEAT (phytotoxicity rating): 60
[10]
  Post-emerge Herbicidal Activity ECC (phytotoxicity rating): 100
[11]
  Pre-emerge Herbicidal Activity IPH (phytotoxicity rating): 98
[12]
  Post-emerge crop damage SOY (phytotoxicity rating): 60
[13]
  Pre-emerge Herbicidal Activity CHA (phytotoxicity rating): 100
[14]
  Post-emerge crop damage RICE (phytotoxicity rating): 75
[15]
  Pre-emerge crop damage RICE (phytotoxicity rating): 70
[16]
  Pre-emerge Herbicidal Activity SOH (phytotoxicity rating): 100
[17]
  Pre-emerge Herbicidal Activity XAS (phytotoxicity rating): 99
[18]
  Pre-emerge crop damage CORN (phytotoxicity rating): 70
[19]
  Pre-emerge Herbicidal Activity DIS (phytotoxicity rating): 100
[20]
  Post-emerge Herbicidal Activity SOH (phytotoxicity rating): 80
[21]
  Pre-emerge Herbicidal Activity SEV (phytotoxicity rating): 100
[22]
  Post-emerge Herbicidal Activity ABT (phytotoxicity rating): 100
[23]
  Pre-emerge Herbicidal Activity ABT (phytotoxicity rating): 100
[24]
  Post-emerge Herbicidal Activity CAO (phytotoxicity rating): 100
[25]
  Post-emerge Herbicidal Activity IPH (phytotoxicity rating): 100
[26]
  Post-emerge Herbicidal Activity SEV (phytotoxicity rating): 100
[27]
  Pre-emerge Herbicidal Activity CAO (phytotoxicity rating): 100
[28]
  Pre-emerge Herbicidal Activity AML (phytotoxicity rating): 100
[29]
  Post-emerge Herbicidal Activity AMR (phytotoxicity rating): 100
[30]
  Post-emerge Herbicidal Activity CHA (phytotoxicity rating): 100

— patent US6770596B1, “Fused tricyclic compounds, process for their preparation, and herbicidal compositions containing them” (Ishihara Sangyo Kaisha Ltd., priority 2002, dated 2004)
